Measured values reported in patent US20190374481A1, “ADMINISTRATION REGIMEN FOR A PHARMACEUTICAL PATCH COMPRISING LIDOCAINE AND DICLOFENAC” (TEIKOKU SEIYAKU CO., LTD., priority 2017, published 2019).

Assays:
[1] = tested on: CFA-induced edema of paw / mechanical-hyperalgesia; assay: CFA-hindpaw inflammation, paw pressure test (CFA-PPT), topical application to the paw; format: in vivo, rat
Description: In comparative example 2 and inventive examples 5 to 8 as described below, a compound or combination of compounds was administered topically to the paw by means of an ointment or solution (FIGS. 10 to 18).
The efficacy was tested when a compound or a compositions of compounds was administered topically as an ointment or a solution. The study was performed on male albino rats (150-180 g body weight) to which an edema of paw was induced by injection of Complete Freunds Adjuvant (CFA). CFA is a composition of inactivated and dried Myobacteria tuberculoses, emulsified in mineral oil which is used as an immunopotentiator causing a painful reaction that lasts 7-8 days after subcutaneous injection.
The studies of comparative example 2 and inventive examples 5 to 8 were performed according to the following procedure: 50 μL of CFA were injected sub plantar into the right hind paw, inducing mechanical-hyperalgesia after 24 hours. […]
The pain was measured by pressing a pointer on the inflamed paw. The pointer exerts a force, increasing at a constant rate, monitored by a linear scale. […] Efficacy of the test compounds is expressed as a percent change of withdrawal threshold after compound administration to the pre-value (withdrawal threshold before compound administration).

CFA-hindpaw inflammation = assay: CFA-hindpaw inflammation, paw pressure test (CFA-PPT), intraperitoneal injection; format: in vivo, rat
Description: An interaction study was performed as a single dose study in the CFA-hindpaw inflammation, paw pressure test.
In comparative example 1 and inventive examples 1 to 4 described below, a compound or combination of compounds was administered by intraperitoneal injection (FIGS. 1 to 9).
The pain was measured by pressing a pointer on the inflamed paw. The pointer exerts a force, increasing at a constant rate, monitored by a linear scale. Pain is deemed to be perceived one the rat starts to withdraw the paw. This value (withdrawal threshold in gram) is the pressure at which the animal feels pain (cut-off 450 g). Efficacy of the test compounds is expressed as a percent change of withdrawal threshold after compound administration to the pre-value (withdrawal threshold before compound administration).

Structure (SMILES)	efficacy in CFA-PPT when topically administered alone ([1]; Diclofenac alone, 40 mg/ml to 80 mg/ml)	efficacy in CFA-PPT when administered alone (CFA-hindpaw inflammation; Diclofenac alone, dose range 21.5 mg/kg to 100 mg/kg ip)	efficacy in CFA-PPT when topically administered alone ([1]; Lidocaine alone, 30 mg/ml to 60 mg/ml)	efficacy in CFA-PPT when administered alone (CFA-hindpaw inflammation; Lidocaine alone, dose range 10 mg/kg to 46.4 mg/kg ip)
O=C(O)Cc1ccccc1Nc1c(Cl)cccc1Cl [Diclofenac, 2-(2,6-dichloranilino) phenylacetic acid]	dose dependent efficacy	dose dependent efficacy		
CCN(CC)CC(=O)Nc1c(C)cccc1C [Lidocaine, 2-(diethylamino)-N-(2,6-dimethylphenyl)acetamide]			dose dependent efficacy	dose dependent efficacy
